Reference: patent US4223036A, “1-(1,3-Dioxolan-2-ylmethyl)-1H-1,2,4-triazoles” (Janssen Pharmaceutica N.V., priority 1979, dated 1980)
Where a name gives a salt, the structure may show the parent alone.

How the values were obtained:
Candida albicans [1] = test: Activity against vaginal candidosis in rats (lowest oral dose active at the 14th day after infection); assay type: in vivo, Female Wistar rats; set-up: lowest effective oral dose (vaginal candidosis in rats): unit not given here; settings: oral once a day for two days, active at 14th day after infection; for minimal effective dose: Candida albicans, 336 h; for lowest effective oral dose (vaginal candidosis in rats): Table I
Description: Experiment A: Activity of Compounds (I) Against Vaginal Candidosis in Rats
Female Wistar rats of ±100 g body weight were used. They were ovariectomized and hysterectomized and after three weeks of recovery, 100 μg of oestradiol undecylate in sesame oil was given subcutaneously once a week for 3 consecutive weeks. The thus induced pseudooestrus was controlled by microscopic examination of vaginal smears. Food and water were left available ad libitum.
The rats were infected intravaginally with 8.10^5 cells of Candida albicans, grown on Sabouraud broth for 48 hours at 37° C. and diluted with saline. The date of infection varied from day +25 to day +32 after surgical intervention, depending on the appearance of signs of induced pseudo-oestrus.
The drugs under investigation were administered orally once a day for two days starting from the day of infection. For each experiment there were placebo treated controls. The results were assessed by taking vaginal smears with sterile swabs on several days after infection. The swabs were put into Sabouraud broth in petri-dishes and incubated for 48 hours a 37° C. If no growth of Candida albicans occured, i.e., when the animals were negative at the end of the experiment, this was due to drug administration because it never happened in placebo treated controls.
The Tables I, II and III below give the lowest oral dose of the drug under investigation which was found active at the 14th day after infection.

Candida albicans [2] = test: Activity against crop candidosis in turkeys (dose whereby crops of 50% of animals were completely negative); assay type: in vivo; settings: medicated feed for 13 consecutive days
Description: Experiment B: Activity of Compounds (I) Against Crop Candidosis in Turkeys
Turkeys of 14 days old were infected in the crop with 4.10^6 Candida albicans cells, grown on Sabouraud broth for 48 hours at 37° C. and diluted with saline. The volume of the inoculum was 1 ml. The drug under investigation were premixed in 500 mg of lacton and thereafter admixed in 1000 g of meal without any additives. The concentration of the drug under investigation in the meal was expressed in mg/kg.
The animals were given the medicated feed for 13 consecutive days starting on the day of infection. At the end of the experiment all animals were sacrificed. At autopsy the crops were removed, emptied and grinded in an ultra-turrax mixer in 15 ml of sterile saline. Colony counting was done on Sabouraud agar and the results given in the Tables I, II and III represent the ED50, i.e., the dose of the drug whereby the crops of 50% of the animals were completely negative for Candida albicans.

Structure (SMILES)	lowest effective oral dose (vaginal candidosis in rats) (Candida albicans [1])	ED50 (crop candidosis in turkeys) (Candida albicans [2]; Table II)	further results
CCOC(=O)N1CCN(c2ccc(OCC3COC(Cn4ccnc4)(c4ccc(OC)cc4)O3)cc2)CC1 (centres unmarked) [ethyl 4-{4-[2-(1H-imidazol-1-ylmethyl)-2-(4-methoxyphenyl)-1,3-dioxolan-4-ylmethoxy]phenyl}-1-piperazinecarboxylate (E)-2-butenedioate (2:1)]	–	–	minimal effective dose (Candida albicans [1]; Table III): 2.5 mg/kg
CN(C)c1ccc(OC[C@H]2CO[C@](Cn3ccnc3)(c3ccc(Cl)cc3Cl)O2)cc1 (relative stereo) [cis-4-[2-(2,4-dichlorophenyl)-2-(1H-imidazol-1-ylmethyl)-1,3-dioxolan-4-ylmethoxy]-N,N'-dimethylbenzenamine diethanedioate.hydrate]	10	–	ED50 (crop candidosis in turkeys) (Candida albicans [2]; Table I): 31 mg/kg of feed
CCOC(=O)N1CCN(c2cccc(OC[C@H]3CO[C@](Cn4ccnc4)(c4ccc(Cl)cc4Cl)O3)c2)CC1 (relative stereo)	–	–	minimal effective dose (Candida albicans [1]; Table III): 2.5 mg/kg
COc1ccc(C(=O)Nc2ccc(OC[C@H]3CO[C@](Cn4ccnc4)(c4ccc(Cl)cc4Cl)O3)cc2)cc1 (relative stereo)	40	–	ED50 (crop candidosis in turkeys) (Candida albicans [2]; Table I): 16 mg/kg of feed
CC(C)CN1CCN(c2ccc(OC[C@H]3CO[C@](Cn4cncn4)(c4ccc(Cl)cc4Cl)O3)cc2)CC1 (relative stereo) [CH2CH(CH3)2]	–	31 mg/kg of feed	minimal effective dose (Candida albicans [1]; Table II): 2.5 mg/kg
CCN1CCN(c2ccc(OC[C@H]3CO[C@](Cn4ccnc4)(c4ccc(Cl)cc4Cl)O3)cc2)CC1 (relative stereo) [drawing 49]	< 2.5	–	–
CCOC(=O)N1CCN(c2ccc(OC[C@H]3CO[C@](Cn4cncn4)(c4ccc(Cl)cc4Cl)O3)cc2)CC1 (relative stereo) [COOC2 H5, cis-ethyl 4-{4-[2-(2,4-dichlorophenyl)-2-(1H-1,2,4-triazol-1-ylmethyl)-1,3-dioxolan-4-ylmethoxy]phenyl}1-piperazinecarboxylate dihydrochloride]	–	8 mg/kg of feed	–
NC(=S)Nc1ccc(OC[C@H]2CO[C@](Cn3ccnc3)(c3ccc(Cl)cc3Cl)O2)cc1 (relative stereo) [NHCSNH2, cis-N-{4-[2-(2,4-dichlorophenyl)-2-(1H-imidazol-1-yl-methyl)-1,3-dioxolan-4-ylmethoxy]phenyl}thiourea]	20	–	–
O=C(Nc1ccc(OC[C@H]2CO[C@](Cn3ccnc3)(c3ccc(Cl)cc3Cl)O2)cc1)Oc1ccccc1 (relative stereo)	10	–	ED50 (crop candidosis in turkeys) (Candida albicans [2]; Table I): 125 mg/kg of feed
O=C(c1ccccc1)N1CCN(c2ccc(OC[C@H]3CO[C@](Cn4cncn4)(c4ccc(Cl)cc4Cl)O3)cc2)CC1 (relative stereo) [COC6 H5, cis-1-benzoyl-4-{4-[2-(2,4-dichlorophenyl)-2-(1H-1,2,4-triazol-1-ylmethyl)-1,3-dioxolan-4-ylmethoxy]phenyl}piperazine]	–	–	minimal effective dose (Candida albicans [1]; Table II): 1.25 mg/kg
Clc1ccc([C@@]2(Cn3ccnc3)OC[C@H](COc3ccc(N4CCNCC4)cc3)O2)c(Cl)c1 (relative stereo)	5	–	ED50 (crop candidosis in turkeys) (Candida albicans [2]; Table I): 125 mg/kg of feed
Clc1ccc([C@@]2(Cn3ccnc3)OC[C@H](COc3ccc(N4CCOCC4)cc3)O2)c(Cl)c1 (relative stereo)	2.5	–	ED50 (crop candidosis in turkeys) (Candida albicans [2]; Table I): 16 mg/kg of feed
CC(=O)N1CCN(c2ccc(OC[C@H]3CO[C@](Cn4cncn4)(c4ccc(Cl)cc4Cl)O3)cc2)CC1 (relative stereo) [COCH3, cis-1-acetyl-4-{4-[2-(2,4-dichlorophenyl)-2-(1H-1,2,4-triazol-1-ylmethyl)-1,3-dioxolan-4-yl-methoxy]phenyl}piperazine]	–	8 mg/kg of feed	minimal effective dose (Candida albicans [1]; Table II): 1.25 mg/kg
CC(C)N1CCN(c2ccc(OC[C@H]3CO[C@](Cn4ccnc4)(c4ccc(Cl)cc4Cl)O3)cc2)CC1 (relative stereo)	2.5	–	–
O=C(Oc1ccccc1)N1CCN(c2ccc(OC[C@H]3CO[C@](Cn4cncn4)(c4ccc(Cl)cc4Cl)O3)cc2)CC1 (relative stereo) [COOC6 H5, cis-phenyl 4-{4-[2-(2,4-dichlorophenyl)-2-(1H-1,2,4-triazol-1-ylmethyl)-1,3-dioxolan-4-ylmethoxy]phenyl}-1-piperazinecarboxylate]	–	16 mg/kg of feed	–
CCCC(=O)N1CCN(c2ccc(OC[C@H]3CO[C@](Cn4cncn4)(c4ccc(Cl)cc4Cl)O3)cc2)CC1 (relative stereo) [CO(CH2)2CH3, cis-1-{4-[2-(2,4-dichlorophenyl)-2-(1H-1,2,4-triazol-1-ylmethyl)-1,3-dioxolan-4-ylmethoxy]phenyl}-4-(1-oxobutyl)piperazine dihydrochloride]	–	16 mg/kg of feed	–

Structure (SMILES)	lowest effective oral dose (vaginal candidosis in rats) (Candida albicans [1])	ED50 (crop candidosis in turkeys) (Candida albicans [2]; Table II)	further results
O=S(=O)(Cc1ccccc1)N1CCN(c2ccc(OC[C@H]3CO[C@](Cn4ccnc4)(c4ccc(Cl)cc4Cl)O3)cc2)CC1 (relative stereo)	–	–	ED50 (crop candidosis in turkeys) (Candida albicans [2]; Table I): 16 mg/kg of feed
CC(C)CN1CCN(c2ccc(OC[C@H]3CO[C@](Cn4ccnc4)(c4ccc(Cl)cc4Cl)O3)cc2)CC1 (relative stereo)	–	–	ED50 (crop candidosis in turkeys) (Candida albicans [2]; Table I): 16 mg/kg of feed
CNc1ccc(OC[C@H]2CO[C@](Cn3ccnc3)(c3ccc(Cl)cc3Cl)O2)cc1 (relative stereo) [NHCH3, cis-4-[2-(2,4-dichlorophenyl)-2-(1H-imidazol-1-ylmethyl)-1,3-dioxolan-4-ylmethoxy]-N-methylbenzenamine]	5	–	–
COc1ccc(C2(Cn3ccnc3)OCC(COc3ccc(N4CCN(C(C)=O)CC4)cc3)O2)cc1 (centres unmarked) [1-acetyl-4-{4-[2-(1H-imidazol-1-ylmethyl)-2-(4-methoxyphenyl)-1,3-dioxolan-4-ylmethoxy]phenyl}piperazine]	–	–	ED50 (crop candidosis in turkeys) (Candida albicans [2]; Table III): 31 mg/kg of feed
CC(C)N1CCN(c2ccc(OC[C@H]3CO[C@](Cn4cncn4)(c4ccc(Cl)cc4Cl)O3)cc2)CC1 (relative stereo) [CH(CH3)2]	–	–	minimal effective dose (Candida albicans [1]; Table II): 2.5 mg/kg
CCCN1CCN(c2ccc(OC[C@H]3CO[C@](Cn4cncn4)(c4ccc(Cl)cc4Cl)O3)cc2)CC1 (relative stereo) [(CH2)2CH3]	–	16 mg/kg of feed	–
O=S(=O)(Cc1ccccc1)N1CCN(c2ccc(OC[C@H]3CO[C@](Cn4cncn4)(c4ccc(Cl)cc4Cl)O3)cc2)CC1 (relative stereo) [SO2CH2C6H5, cis-1-{4-[2-(2,4-dichlorophenyl)-2-(1H-1,2,4-triazol-1-ylmethyl)-1,3-dioxolan-4-ylmethoxy]phenyl}-4-(phenylmethylsulfonyl)piperazine monohydrate]	–	16 mg/kg of feed	–
O=C(Nc1ccc(OC[C@H]2CO[C@](Cn3ccnc3)(c3ccc(Cl)cc3Cl)O2)cc1)c1ccc(Cl)cc1 (relative stereo)	–	–	ED50 (crop candidosis in turkeys) (Candida albicans [2]; Table I): 31 mg/kg of feed
COC(=O)N1CCN(c2ccc(OC[C@H]3CO[C@](Cn4cncn4)(c4ccc(Cl)cc4Cl)O3)cc2)CC1 (relative stereo) [COOCH 3, cis-methyl 4-{4-[2-(2,4-dichlorophenyl)-2-(1H-1,2,4-triazol-1-ylmethyl)-1,3-dioxolan-4-ylmethoxy]phenyl}-1-piperazinecarboxylate]	–	8 mg/kg of feed	–
CCC(=O)N1CCN(c2ccc(OC[C@H]3CO[C@](Cn4cncn4)(c4ccc(Cl)cc4Cl)O3)cc2)CC1 (relative stereo) [COC2 H5, cis-1{4-[2-(2,4-dichlorophenyl)-2-(1H-1,2,4-triazol-1-ylmethyl)-1,3-dioxolan-4-ylmethoxy]phenyl}-4-(1-oxopropyl)piperazine dihydrochloride]	–	8 mg/kg of feed	–
O=CN1CCN(c2ccc(OC[C@H]3CO[C@](Cn4ccnc4)(c4ccc(Cl)cc4Cl)O3)cc2)CC1 (relative stereo)	< 10	–	–
NC(=O)CN1CCN(c2ccc(OC[C@H]3CO[C@](Cn4ccnc4)(c4ccc(Cl)cc4Cl)O3)cc2)CC1 (relative stereo)	1.25	–	–
CN1CCN(c2ccc(OC[C@H]3CO[C@](Cn4ccnc4)(c4ccc(Cl)cc4Cl)O3)cc2)CC1 (relative stereo)	2.5	–	–
CCCCN1CCN(c2ccc(OC[C@H]3CO[C@](Cn4ccnc4)(c4ccc(Cl)cc4Cl)O3)cc2)CC1 (relative stereo)	–	–	ED50 (crop candidosis in turkeys) (Candida albicans [2]; Table I): 31 mg/kg of feed
CCCCN1CCN(c2ccc(OC[C@H]3CO[C@](Cn4cncn4)(c4ccc(Cl)cc4Cl)O3)cc2)CC1 (relative stereo) [(CH2)3CH3]	–	16 mg/kg of feed	–
